The source of these data is patent publication US8637512B2, “Formulations and method of treatment” (Glaxo Group Limited, priority 2002, dated 2014).

For data set [1] the following is noted: stomach versus lower regions of the gastrointestinal tract; cited from earlier work.
For data set [2] the following is noted: cited from earlier work.
The nature of data set [3]: Regional absorption study in the gastrointestinal tract. The class given is in vivo. From the text: Until recently, it was not known where, in the gastrointestinal tract, lamotrigine is absorbed. In carrying out a regional absorption study it has recently been discovered that the extent of absorption of lamotrigine is consistent when the drug is delivered to any point in the gastrointestinal tract between the stomach and the ascending colon. The extent of absorption is also equivalent whether the drug is delivered as a solid or as a solution.

Consider `Nc1nnc(-c2cccc(Cl)c2Cl)c(N)n1` [Lamotrigine, 3,5-diamino-6-(2,3-dichlorophenyl)-1,2,4-triazine], for which the “solubility in the stomach compared to lower regions of the gastrointestinal tract” value in data set [1] is on record as “higher”. Besides, the “absorption after oral administration” value in data set [2] is “rapidly and completely absorbed”. In data set [2] (oral administration), the absolute bioavailability result is reported as “about 98%”, the “effect of food on absolute bioavailability” value was “not affected by food” and the first pass metabolism entry is “negligible”. Moreover, the “extent of absorption, solid versus solution” value in data set [3] (drug delivered as a solid or as a solution) is given as “equivalent”. Further, the “extent of absorption by site of delivery” value in data set [3] (drug delivered to any point in the gastrointestinal tract between the stomach and the ascending colon) is on record as “consistent”.
